The values below come from US6544985B2, “Dihydro-benzo [b][1,4]diazepin-2-one derivatives” (Hoffman-La Roche Inc., priority 2001, dated 2003).

SMILES strings stand for the structures.

Usually melting point stands for the temperature of the solid-liquid transition. As for `CN(C)c1cc2c(cc1C(F)(F)F)NC(=O)CC(c1cccc(-n3nncc3CCO)c1)=N2` [Example 85, 7-Dimethylamino-4-{3-[5-(2-hydroxy-ethyl)-[1,2,3]triazol-1-yl]-phenyl}-8-trifluoromethyl-1,3-dihydro-benzo[b][1,4]diazepin-2-one], the melting point was 172 to 175 °C. `CN(C)c1cc2c(cc1C(F)(F)F)NC(=O)CC(c1cccc(-n3nccc3CO)c1)=N2` [Example 86, 7-Dimethylamino-4-[3-(5-hydroxymethyl-pyrazol-1-yl)-phenyl]-8-trifluoromethyl-1,3-dihydro-benzo[b][1,4]diazepin-2-one]: the melting point was in the range of 228 to 229 °C. Regarding `CN(C)c1cc2c(cc1C(F)(F)F)NC(=O)CC(c1cccc(-n3ccnn3)c1)=N2` [Example 87, 7-Dimethylamino-4-(3-[1,2,3]triazol-1-yl-phenyl)-8-trifluoromethyl-1,3-dihydro-benzo[b][1,4]diazepin-2-one], the melting point fell in the range of 210 to 212 °C. The compound `Cc1cc2c(cc1N(C)C)N=C(c1cccc(C#N)c1)CC(=O)N2` [Example 89, 3-(8-Dimethylamino-7-methyl-4-oxo-4,5-dihydro-3H-benzo[b][1,4]diazepin-2-yl)-benzonitrile] displayed a melting point of 257 °C. On to `Cc1cc2c(cc1N(C)C)N=C(c1cccc(-n3nncc3CO)c1)CC(=O)N2` [Example 90, 7-Dimethylamino-4-[3-(5-hydroxymethyl-[1,2,3]triazol-1-yl)-phenyl]-8-methyl-1,3-dihydro-benzo[b][1,4]diazepin-2-one], for which the melting point was 190 °C. Then `CN(C)c1cc2c(cc1C#N)NC(=O)CC(c1cccc(C#N)c1)=N2` [Example 91, 2-(3-Cyano-phenyl)-8-dimethylamino-4-oxo-4,5-dihydro-3H-benzo[b][1,4]diazepine-7-carbonitrile], with 251 °C; and `CCCN(C)c1cc2c(cc1C)NC(=O)CC(c1cccc(-n3nncc3CO)c1)=N2` [Example 93, 4-[3-(5-Hydroxymethyl-[1,2,3]triazol-1-yl)-phenyl]-8-methyl-7-(methyl-propyl-amino)-1,3-dihydro-benzo[b][1,4]diazepin-2-one], with 186 °C; and `CCN(C)c1cc2c(cc1C)NC(=O)CC(c1cccc(-n3nncc3CO)c1)=N2` [Example 94, 7-(Ethyl-methyl-amino)-4-[3-(5-hydroxymethyl-[1,2,3]triazol-1-yl)-phenyl]-8-methyl-1,3-dihydro-benzo[b][1,4]diazepin-2-one], with 207 °C. `CN(C)c1cc2c(cc1C#N)NC(=O)CC(c1cccc(-n3nncc3CO)c1)=N2` [Example 95, 8-Dimethylamino-2-[3-(5-hydroxymethyl-[1,2,3]triazol-1-yl)-phenyl]-4-oxo-4,5-dihydro-3H-benzo[b][1,4]diazepine-7-carbonitrile] displayed a melting point of 234 °C.

In turn, `CC(C)N(C)c1cc2c(cc1Cl)NC(=O)CC(c1cccc(-n3nncc3CO)c1)=N2` [Example 96, 8-Chloro-4-[3-(5-hydroxymethyl-[1,2,3]triazol-1-yl)-phenyl]-7-(isopropyl-methyl-amino)-1,3-dihydro-benzo[b][1,4]diazepin-2-one] had a melting point of 207 °C. Next, `CCCN(C)c1cc2c(cc1C)NC(=O)CC(c1cccc(-c3cc(C)no3)c1)=N2` [Example 97, 8-Methyl-4-[3-(3-methyl-isoxazol-5-yl)-phenyl]-7-(methyl-propyl-amino)-1,3-dihydro-benzo[b][1,4]diazepin-2-one]: 194 °C; `Cc1cc(-c2cccc(C3=Nc4cc(N(C)C)c(C#N)cc4NC(=O)C3)c2)on1` [Example 98, 8-Dimethylamino-2-[3-(3-methyl-isoxazol-5-yl)-phenyl]-4-oxo-4,5-dihydro-3H-benzo[b][1,4]diazepine-7-carbonitrile]: 248 °C.

On to `Cc1cc(-c2cccc(C3=Nc4cc(N(C)C)c(C)cc4NC(=O)C3)c2)on1` [Example 100, 7-Dimethylamino-8-methyl-4-[3-(3-methyl-isoxazol-5-yl)-phenyl]-1,3-dihydro-benzo[b][1,4]diazepin-2-one], for which the melting point worked out at 204 °C. With `Cc1cc(-c2cccc(C3=Nc4cc(N(C)CC(C)C)c(Cl)cc4NC(=O)C3)c2)on1` [Example 102, 8-Chloro-7-(isobutyl-methyl-amino)-4-[3-(3-methyl-isoxazol-5-yl)-phenyl]-1,3-dihydro-benzo[b][1,4]diazepin-2-one], the melting point was 194 °C. Then `N#Cc1cc2c(cc1N1CCCC1)N=C(c1cccc(-n3nncc3CO)c1)CC(=O)N2` [Example 103, 2-[3-(5-Hydroxymethyl-[1,2,3]triazol-1-yl)-phenyl]-4-oxo-8-pyrrolidin-1-yl-4,5-dihydro-3H-benzo[b][1,4]diazepine-7-carbonitrile], with 241 °C; and `Cc1cc(-c2cccc(C3=Nc4cc(N5CCCC5)c(C#N)cc4NC(=O)C3)c2)on1` [Example 104, 2-[3-(3-Methyl-isoxazol-5-yl)-phenyl]-4-oxo-8-pyrrolidin-1-yl-4,5-dihydro-3H-benzo[b][1,4]diazepine-7-carbonitrile], with 267 °C. Then `CCCN(C)c1cc2c(cc1C#N)NC(=O)CC(c1cccc(-n3nncc3CO)c1)=N2` [Example 105, 2-[3-(5-Hydroxymethyl-[1,2,3]triazol-1-yl)-phenyl]-8-(methyl-propyl-amino)-4-oxo-4,5-dihydro-3H-benzo[b][1,4]diazepine-7-carbonitrile], with 221 °C.

Consider `CCCN(C)c1cc2c(cc1C#N)NC(=O)CC(c1cccc(-c3cc(C)no3)c1)=N2` [Example 106, 2-[3-(3-Methyl-isoxazol-5-yl)-phenyl]-8-(methyl-propyl-amino)-4-oxo-4,5-dihydro-3H-benzo[b][1,4]diazepine-7-carbonitrile], for which the melting point turned out to be 133 °C. The compound `Cc1cc(-c2cccc(C3=Nc4cc(N(C)C(C)C)c(C#N)cc4NC(=O)C3)c2)on1` [Example 108, 8-(Isopropyl-methyl-amino)-2-[3-(3-methyl-isoxazol-5-yl)-phenyl]-4-oxo-4,5-dihydro-3H-benzo[b][1,4]diazepine-7-carbonitrile] yielded a melting point of 197 °C.

Compound `CC(C)N(C)c1cc2c(cc1C#N)NC(=O)CC(c1cccc(-n3nncc3CO)c1)=N2` [Example 109, 2-[3-(5-Hydroxymethyl-[1,2,3]triazol-1-yl)-phenyl]-8-(isopropyl-methyl-amino)-4-oxo-4,5-dihydro-3H-benzo[b][1,4]diazepine-7-carbonitrile] came in with a melting point of 206 °C. `Cc1cc(-c2cccc(C3=Nc4cc(N(C)CC(C)C)c(C#N)cc4NC(=O)C3)c2)on1` [Example 110, 8-(Isobutyl-methyl-amino)-2-[3-(3-methyl-isoxazol-5-yl)-phenyl]-4-oxo-4,5-dihydro-3H-benzo[b][1,4]diazepine-7-carbonitrile] showed a melting point of 170 °C.

For the compound `Cc1cc(-c2cccc(C3=Nc4cc(N5CCCCC5)c(C#N)cc4NC(=O)C3)c2)on1` [Example 112, 2-[3-(3-Methyl-isoxazol-5-yl)-phenyl]-4-oxo-8-piperidin-1-yl-4,5-dihydro-3H-benzo[b][1,4]diazepine-7-carbonitrile], the melting point turned out to be 246 °C. Then `CCCN(C)c1cc2c(cc1C(F)(F)F)NC(=O)CC(c1cccc(-n3nncc3CO)c1)=N2` [Example 115, 4-[3-(5-Hydroxymethyl-[1,2,3]triazol-1-yl)-phenyl]-7-(methyl-propyl-amino)-8-trifluoromethyl-1,3-dihydro-benzo[b][1,4]diazepin-2-one], with 230 °C; and `CCCN(C)c1cc2c(cc1C(F)(F)F)NC(=O)CC(c1cccc(-c3cc(C)no3)c1)=N2` [Example 116, 4-[3-(3-Methyl-isoxazol-5-yl)-phenyl]-7-(methyl-propyl-amino)-8-trifluoromethyl-1,3-dihydro-benzo[b][1,4]diazepin-2-one], with 193 °C; and `Cc1cc(-c2cccc(C3=Nc4cc(N(C)CC(C)C)c(C(F)(F)F)cc4NC(=O)C3)c2)on1` [Example 118, 7-(Isobutyl-methyl-amino)-4-[3-(3-methyl-isoxazol-5-yl)-phenyl]-8-trifluoromethyl-1,3-dihydro-benzo[b][1,4]diazepin-2-one], with 195 °C.

The compound `CC(C)N(C)c1cc2c(cc1C(F)(F)F)NC(=O)CC(c1cccc(-n3nncc3CO)c1)=N2` [Example 119, 4-[3-(5-Hydroxymethyl-[1,2,3]triazol-1-yl)-phenyl]-7-(isopropyl-methyl-amino)-8-trifluoromethyl-1,3-dihydro-benzo[b][1,4]diazepin-2-one] registered a melting point of 234 °C. Compound `Cc1cc(-c2cccc(C3=Nc4cc(N(C)C(C)C)c(C(F)(F)F)cc4NC(=O)C3)c2)on1` [Example 120, 7-(Isopropyl-methyl-amino)-4-[3-(3-methyl-isoxazol-5-yl)-phenyl]-8-trifluoromethyl-1,3-dihydro-benzo[b][1,4]diazepin-2-one] had a melting point of 199 °C. For the compound `CCCN(C)c1cc2c(cc1Cl)NC(=O)CC(c1cccc(-n3nncc3CN(CC)CC)c1)=N2` [Example 123, 8-Chloro-4-[3-(5-diethylaminomethyl-[1,2,3]triazol-1-yl)-phenyl]-7-(methyl-propyl-amino)-1,3-dihydro-benzo[b][1,4]diazepin-2-one], the melting point is 151 °C.

The compound `CCCN(C)c1cc2c(cc1Cl)NC(=O)CC(c1cccc(-n3nncc3CN(C)C(C)C)c1)=N2` [Example 124, 8-Chloro-4-(3-{5-[(isopropyl-methyl-amino)-methyl]-[1,2,3]triazol-1-yl}-phenyl)-7-(methyl-propyl-amino)-1,3-dihydro-benzo[b][1,4]diazepin-2-one] gave a melting point of 148 °C. Regarding `CC(C)N(C)c1cc2c(cc1Cl)NC(=O)CC(c1cccc(-n3nncc3CN3CCCC3)c1)=N2` [Example 125, 8-Chloro-7-(isopropyl-methyl-amino)-4-[3-(5-pyrrolidin-1-ylmethyl-[1,2,3]triazol-1-yl)-phenyl]-1,3-dihydro-benzo[b][1,4]diazepin-2-one], the melting point was determined as 172 °C.
